# Data from PMC8041284, “Tunable Methacrylamides for Covalent Ligand Directed Release Chemistry” (Journal of the American Chemical Society, 2021).
# Target: BTK (Homo sapiens, UniProt Q06187)
# Assay: biochemical
# Conditions: read-out: BTK inhibition (%), 0.75 uM BTK, […] probe 3l, 15 min preincubation
# Chain of BTK (Q06187 402-655 limits assumed): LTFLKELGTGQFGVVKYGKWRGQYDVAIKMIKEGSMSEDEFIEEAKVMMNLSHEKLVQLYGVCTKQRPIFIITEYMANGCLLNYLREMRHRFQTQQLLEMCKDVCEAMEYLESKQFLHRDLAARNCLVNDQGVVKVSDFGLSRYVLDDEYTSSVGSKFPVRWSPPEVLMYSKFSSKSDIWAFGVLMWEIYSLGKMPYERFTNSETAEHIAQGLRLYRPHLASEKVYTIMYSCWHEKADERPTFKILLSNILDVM
row,Compound,inhibition at 10 µM
1,COc1ccc(-c2oc3c(CC=C(C)C)c(O[C@@H]4C[C@H](CO)[C@@H](O)[C@H](O)[C@H]4O)cc(O)c3c(=O)c2O[C@@H]2O[C@@H](C)[C@H](O)[C@@H](O)[C@H]2O[C@@H]2O[C@H](CO)[C@@H](O)[C@H](O)[C@H]2O)cc1 [PCM-0216510],-15.4%
2,COc1ccc(F)c(F)c1C(=O)c1cnc(NC2CCN(S(C)(=O)=O)CC2)nc1N [PCM-0095383],-9.7%
3,CC1(C)OCCn2c1nc1c(N3CCOCC3)nc(-c3cnc(N)nc3)nc12 [PCM-0215737],37.9%
4,Cc1nc2n(c(=O)c1CCN1CCC(c3noc4cc(F)ccc34)CC1)CCCC2 [PCM-0086311],1.7%
5,N[C@@]1(C(=O)O)CS(=O)(=O)[C@H]2[C@H](C(=O)O)[C@H]21 [PCM-0215191],9.4%
6,CC(C)(C)NC(=O)[C@H]1CC[C@H]2[C@@H]3CC[C@H]4NC(=O)C=C[C@]4(C)[C@H]3CC[C@]12C [PCM-0214718],13.2%
7,Nc1ccn([C@@H]2O[C@H](CO)[C@@H](O)[C@H]2O)c(=O)n1 [PCM-0095215],-15.6%
8,N#Cc1ccc(COC[C@H]2O[C@@H](n3c(NCc4ccc(Cl)c(Cl)c4)nc4c(N)ncnc43)[C@H](O)[C@@H]2O)cc1 [PCM-0215474],7.7%
9,NC(=O)c1nc(F)c[nH]c1=O [PCM-0215543],-6.2%
10,COc1cc2nc(N3CCN(C(=O)C4COc5ccccc5O4)CC3)nc(N)c2cc1OC (centres unmarked) [PCM-0065300],-11.7%
11,COc1cc(CO)cc(OC)c1O [PCM-0215146],-6.2%
12,C=C1CC[C@H]2O[C@]2(C)CC[C@@H]2[C@@H]1CC2(C)C [PCM-0214945],-11.7%
13,C[C@H](NC(=O)[C@@H](O)c1cc(F)cc(F)c1)C(=O)N[C@@H]1C(=O)N(C)c2ccccc2-c2ccccc21 [PCM-0095417],6.2%
14,CC12CCC(C1)C(C)(C)C2O (centres unmarked) [PCM-0216150],-13.9%
15,CCCSc1ccc2nc(NC(=O)OC)[nH]c2c1 [PCM-0085774],-10.1%
16,NC(=O)c1cnc2[nH]ccc2c1NC1[C@@H]2CC3C[C@H]1CC(O)(C3)C2 (some centres unmarked) [PCM-0215550],94.5%
17,COCCOc1ccc2c(c1)ncn2-c1ccc2cccc(N3CCC(N)CC3)c2n1 [PCM-0095094],-18.6%
18,C[N+](C)(C)CC(O)CC(=O)O (centres unmarked) [PCM-0090641],-11.7%
19,CN1CCN2c3ccccc3Cc3ccccc3C2C1 (centres unmarked) [PCM-0065420],12.4%
20,Cn1c(=O)c(F)c(Nc2ccc(I)cc2F)c2c(=O)n(C[C@@H](O)CO)cnc21 [PCM-0095463],7.6%
21,CC1(C)CC[C@]2(C(=O)O[C@@H]3O[C@H](CO[C@@H]4O[C@H](CO)[C@@H](O)[C@H](O)[C@H]4O)[C@@H](O)[C@H](O)[C@H]3O)CC[C@]3(C)C(=CC[C@@H]4[C@@]5(C)CC[C@H](O[C@@H]6OC[C@H](O)[C@H](O)[C@H]6O)[C@@](C)(CO)[C@@H]5CC[C@]43C)[C@@H]2C1 [PCM-0216172],13.9%
22,Cc1onc(-c2c(F)cccc2Cl)c1C(=O)N[C@@H]1C(=O)N2[C@@H]1SC(C)(C)[C@@H]2C(=O)O [PCM-0216122],-1.6%
23,CCOC(=O)C1=C(N)Oc2ccc(Cl)cc2C1C(C#N)C(=O)OCC (centres unmarked) [PCM-0215487],40.9%
24,C[C@H](CCC(=O)NCCS(=O)(=O)O)[C@H]1CC[C@H]2[C@@H]3[C@H](O)C[C@@H]4C[C@H](O)CC[C@]4(C)[C@H]3CC[C@]12C [PCM-0215035],-0.8%
25,C[N+](C)(C)CCOP(=O)(O)OP(=O)([O-])OC[C@H]1O[C@@H](n2ccc(N)nc2=O)[C@H](O)[C@@H]1O [PCM-0215877],-17.9%
26,Cc1cc(C)c(CNC(=O)c2cc(-c3ccc(N4CCN(C)CC4)nc3)cc3c2c(C)cn3C(C)C)c(=O)[nH]1 [PCM-0215513],-6.9%
27,COc1ccc([C@H]2CNC(=O)C2)cc1OC1CCCC1 [PCM-0095307],7%
28,C[C@H](NC(=O)/C(C#N)=C/c1cccc(Br)n1)c1ccccc1 [PCM-0095390],12.4%
29,O=S(=O)(O)NC1CCCCC1 [PCM-0090618],3.9%
